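96-well plates; 48 h exposure; 5 concentrations. Endpoints by linear interpolation between flanking doses. Not reached: highest tested concentration assigned. Definition used: TGI = concentration required for complete inhibition of growth.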
Legend:
Experiment in all cases: inhibition of tumour cell growth, NCI panel, 48 h
HL-60(TB) leukemia = system: HL-60(TB) leukemia
HT29 colon = system: HT29 colon
SK-OV-3 ovarian = system: SK-OV-3 ovarian
PC-3 prostate = system: PC-3 prostate
TK-10 renal = system: TK-10 renal
A498 renal = system: A498 renal
BT-549 breast = system: BT-549 breast
COLO 205 colon = system: COLO 205 colon
NCI-H226 lung = system: NCI-H226 lung
MDA-MB-435 = system: MDA-MB-435
SF-268 CNS = system: SF-268 CNS
A549 NSCLC = system: A549 NSCLC
OVCAR-5 ovarian = system: OVCAR-5 ovarian
HS 578T breast = system: HS 578T breast
NCI-H522 lung = system: NCI-H522 lung
786-0 renal = system: 786-0 renal
OVCAR-3 ovarian = system: OVCAR-3 ovarian
CAKI-1 renal = system: CAKI-1 renal
IGROV1 ovarian = system: IGROV1 ovarian
MALME-3M melanoma = system: MALME-3M melanoma
SR leukemia = system: SR leukemia
OVCAR-8 ovarian = system: OVCAR-8 ovarian
SK-MEL-2 melanoma = system: SK-MEL-2 melanoma
SNB-19 CNS = system: SNB-19 CNS
HCT-116 colon = system: HCT-116 colon
UACC-62 melanoma = system: UACC-62 melanoma
MOLT-4 leukemia = system: MOLT-4 leukemia
CCRF-CEM leukemia = system: CCRF-CEM leukemia
NCI-H23 lung = system: NCI-H23 lung
HCC-2998 colon = system: HCC-2998 colon
EKVX NSCLC = system: EKVX NSCLC
NCI-H460 lung = system: NCI-H460 lung
NCI/ADR-RES ovarian = system: NCI/ADR-RES ovarian
HOP-62 NSCLC = system: HOP-62 NSCLC
KM12 colon = system: KM12 colon
HOP-92 NSCLC = system: HOP-92 NSCLC
ACHN renal = system: ACHN renal
MCF7 breast = system: MCF7 breast
DU-145 prostate = system: DU-145 prostate
M14 melanoma = system: M14 melanoma
HCT-15 colon = system: HCT-15 colon
U251 CNS = system: U251 CNS
SW-620 colon = system: SW-620 colon
SN12C renal = system: SN12C renal
UO-31 renal = system: UO-31 renal
OVCAR-4 ovarian = system: OVCAR-4 ovarian
SF-539 CNS = system: SF-539 CNS
UACC-257 melanoma = system: UACC-257 melanoma
SF-295 CNS = system: SF-295 CNS
RPMI-8226 leukemia = system: RPMI-8226 leukemia
LOX IMVI melanoma = system: LOX IMVI melanoma
MDA-N = system: MDA-N
MDA-MB-231 breast = system: MDA-MB-231 breast
SK-MEL-28 melanoma = system: SK-MEL-28 melanoma
T-47D breast = system: T-47D breast
SK-MEL-5 melanoma = system: SK-MEL-5 melanoma
RXF 393 renal = system: RXF 393 renal
SNB-75 CNS = system: SNB-75 CNS
K-562 leukemia = system: K-562 leukemia

Measured: TGI

COc1c2c(cc3c1OCO3)[C@]13C=C[C@H](OC)C[C@H]1N(C2)CC3O (some centres not stated)
not listed: SNB-75 CNS | K-562 leukemia
> 100 µM: all other assays above

N#CCCC(CCC#N)(CCC#N)NO
46.1 µM: NCI-H522 lung
not listed: A498 renal | OVCAR-3 ovarian | MOLT-4 leukemia | CCRF-CEM leukemia | HCC-2998 colon | HOP-62 NSCLC | OVCAR-4 ovarian | LOX IMVI melanoma | SK-MEL-28 melanoma
> 100 µM: all other assays above

From PubChem BioAssay (NCI)
